Data set [1] has as its target T1, Estrogen receptor (Homo sapiens) (UniProt P03372).
T1 sequence (whole entry): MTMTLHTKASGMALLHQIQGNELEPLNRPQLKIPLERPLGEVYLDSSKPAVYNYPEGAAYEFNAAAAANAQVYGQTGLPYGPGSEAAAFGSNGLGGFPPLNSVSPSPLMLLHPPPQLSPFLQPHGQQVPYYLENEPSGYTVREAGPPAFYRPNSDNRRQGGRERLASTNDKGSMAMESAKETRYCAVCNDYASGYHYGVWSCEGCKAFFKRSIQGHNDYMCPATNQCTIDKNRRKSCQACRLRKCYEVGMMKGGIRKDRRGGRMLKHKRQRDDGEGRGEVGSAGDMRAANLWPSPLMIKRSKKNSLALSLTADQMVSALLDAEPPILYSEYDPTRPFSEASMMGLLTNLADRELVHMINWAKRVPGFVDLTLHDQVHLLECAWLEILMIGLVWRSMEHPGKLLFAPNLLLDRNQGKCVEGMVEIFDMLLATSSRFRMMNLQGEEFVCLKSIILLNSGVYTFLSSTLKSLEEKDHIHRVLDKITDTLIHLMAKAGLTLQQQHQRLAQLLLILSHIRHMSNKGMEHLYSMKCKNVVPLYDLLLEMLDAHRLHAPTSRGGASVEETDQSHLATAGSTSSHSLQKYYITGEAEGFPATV
As to the kind of experiment: Binding affinity to ERalpha (unknown origin) by competitive fluorometric receptor binding assay relative to estradiol.

For data set [2], the system named is MCF7. As to the kind of experiment: Antiproliferative activity against human MCF7 cell incubated for 72 hrs by MTT assay. Format: functional, cell-based. The settings on record: MCF7, 72 h. Background: Tetrazolium assays rely on reduction of a dye to a coloured formazan, in cell work by metabolically active cells.
The test system of data set [3] is MCF-10A. As to the kind of experiment: Cytotoxicity against human MCF10A cell incubated for 72 hrs by MTT assay. The format is cell-based.
Data set [4] addresses Estrogen receptor beta (Homo sapiens) (UniProt Q92731). The data set is described as follows: Binding affinity to ERbeta (unknown origin) by competitive fluorometric receptor binding assay relative to estradiol.
Data set [5] in a line: Therapeutic index, ratio of IC50 for cytotoxicity against human MCF10A cells to IC50 for antiproliferative activity against human MCF7 cells. The format is toxicity, cell-based. The settings on record: read-out: Ratio IC50.
Data set [6] has as its target T1, Estrogen receptor (Homo sapiens). The data set is described as follows: Induction of ERalpha degradation in human MCF7 cells assessed as decrease in ERalpha protein expression at 5 uM incubated for 24 hrs by Western blot analysis relative to control. The format is cell-based. Set-up: scale not given: the % may be the effect or the level left. In general terms: Immunoblotting shows a protein as a band on a membrane.

The source made the active and inactive calls. The calls are words filed in the database; no cut-off is given here. Some results are limits rather than exact numbers.

Chain of Estrogen receptor beta (Homo sapiens) (Q92731 whole entry): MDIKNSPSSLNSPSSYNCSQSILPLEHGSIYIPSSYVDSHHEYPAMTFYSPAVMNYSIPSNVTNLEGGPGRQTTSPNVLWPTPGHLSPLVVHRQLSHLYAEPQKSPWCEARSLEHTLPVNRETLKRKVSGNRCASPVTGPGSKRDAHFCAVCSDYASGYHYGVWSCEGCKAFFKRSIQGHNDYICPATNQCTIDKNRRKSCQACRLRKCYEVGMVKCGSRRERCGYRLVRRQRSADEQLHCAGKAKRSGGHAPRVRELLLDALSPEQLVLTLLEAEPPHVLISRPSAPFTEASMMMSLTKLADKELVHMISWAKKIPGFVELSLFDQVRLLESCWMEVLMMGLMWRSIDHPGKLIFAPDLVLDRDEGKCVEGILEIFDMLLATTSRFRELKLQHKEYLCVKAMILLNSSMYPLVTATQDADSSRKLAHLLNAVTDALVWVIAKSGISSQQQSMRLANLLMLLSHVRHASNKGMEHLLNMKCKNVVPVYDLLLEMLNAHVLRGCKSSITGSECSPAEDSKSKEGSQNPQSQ

On to `CCCCCCCCCCCCOc1ccc(C2=C(c3ccc(O)cc3)[C@H]3C[C@H](S(=O)(=O)N(CC(F)(F)F)c4ccc(OC)cc4)[C@@H]2O3)cc1` (relative stereo), for which the relative binding affinity (RBA) in data set [1] was 0.06; in data set [4], 0.15. The IC50 in data set [2] and in data set [3] was above 100 µM throughout.
Turning to `CCCCCCOc1ccc(N(C)S(=O)(=O)[C@H]2C[C@H]3O[C@@H]2C(c2ccc(O)cc2)=C3c2ccc(O)cc2)cc1` (relative stereo), the relative binding affinity (RBA) turned out to be 2.02 in data set [1] and 0.12 in data set [4]. For the same compound, the figures for the 50% inhibitory concentration (IC50) in data set [2] and in data set [3] were 4.14 µM and 30.4 µM, respectively. In data set [5], the selectivity ratio worked out at 7.3. The outcome in data set [6] was Active.
In the case of `CCCCCCOc1ccc(C2=C(c3ccc(O)cc3)[C@H]3O[C@@H]2C[C@@H]3S(=O)(=O)N(CC(F)(F)F)c2ccc(OC)cc2)cc1`, the relative binding affinity (RBA) in data set [1] was found to be 4.43; in data set [4], 0.08. The IC50 – broadly, the midpoint of a concentration-inhibition curve – in data set [2] is 0.84 µM; in data set [3], 42.4 µM. Besides, the selectivity ratio in data set [5] was determined as 50.4. In data set [6], the Activity is 100%.
Turning to `CCCCCCCCOc1ccc(C2=C(c3ccc(O)cc3)[C@H]3O[C@@H]2C[C@@H]3S(=O)(=O)N(CC)c2ccccc2)cc1` (relative stereo), the relative binding affinity (RBA) is 1.03 in data set [1] and 0.05 in data set [4]. The IC50 in data set [2] was 1.16 µM; in data set [3], 34.6 µM. The selectivity ratio in data set [5] turned out to be 29.8.
For `CCCCOc1ccc(C2=C(c3ccc(O)cc3)[C@H]3O[C@@H]2C[C@@H]3S(=O)(=O)N(CC)c2ccccc2)cc1` (relative stereo) the same measures were 3.12, 0.04, 1.82 µM, 32.8 µM and 18.
On to `CCCCCCOc1ccc(C2=C(c3ccc(O)cc3)[C@H]3O[C@@H]2C[C@@H]3S(=O)(=O)N(CC)c2ccccc2)cc1` (relative stereo), for which the relative binding affinity (RBA) in data set [1] came to 2.51; in data set [4] it was 0.53. Also, the results for the half-inhibitory concentration (IC50) in data set [2] and in data set [3] were 0.97 µM and 42.6 µM, respectively. For the same compound, the selectivity ratio in data set [5] amounted to 43.9.
Turning to `CCCCOc1ccc(C2=C(c3ccc(O)cc3)[C@H]3C[C@H](S(=O)(=O)N(CC)c4ccccc4)[C@@H]2O3)cc1` (relative stereo), the relative binding affinity (RBA) in data set [1] came out at 3.26; in data set [4] it was 0.05. The IC50 in data set [2] came to 3.29 µM; in data set [3], 59.2 µM. For the same compound, the selectivity ratio in data set [5] stood at 17.9.
The like results for `CCCCCCCCOc1ccc(C2=C(c3ccc(O)cc3)[C@H]3O[C@@H]2C[C@@H]3S(=O)(=O)N(CC(F)(F)F)c2ccc(Cl)cc2)cc1` were, in that order, 0.59, 0.03, 2.72 µM, 84.2 µM and 30.9.
The like results for `CCCCCCCCCCCCOc1ccc(C2=C(c3ccc(O)cc3)[C@H]3O[C@@H]2C[C@@H]3S(=O)(=O)N(CC(F)(F)F)c2ccc(OC)cc2)cc1` (relative stereo) were, in that order, 0.32, 0.01, 86.7 µM, above 100 µM and above 1.1.
With `CCCCOc1ccc(C2=C(c3ccc(O)cc3)[C@H]3O[C@@H]2C[C@@H]3S(=O)(=O)N(CC(F)(F)F)c2ccc(OC)cc2)cc1` (relative stereo), the relative binding affinity (RBA) in data set [1] worked out at 1.81; in data set [4], 0.27. The IC50 in data set [2] was 2.43 µM; in data set [3] it was 78.3 µM. Besides, the selectivity ratio in data set [5] amounted to 32.2. In addition, the Activity in data set [6] worked out at 100%.
Regarding `CCCCCCCCCCOc1ccc(C2=C(c3ccc(O)cc3)[C@H]3O[C@@H]2C[C@@H]3S(=O)(=O)N(CC(F)(F)F)c2ccc(Cl)cc2)cc1` (relative stereo), the relative binding affinity (RBA) in data set [1] was determined as 0.57; in data set [4], 0.01. The IC50 was 21.2 µM in data set [2] and above 100 µM in data set [3]. In addition, the selectivity ratio in data set [5] was above 4.7.
In the case of `CCCCCCCCOc1ccc(C2=C(c3ccc(O)cc3)[C@H]3C[C@H](S(=O)(=O)N(CC)c4ccccc4)[C@@H]2O3)cc1` (racemic), the relative binding affinity (RBA) was 0.55 in data set [1] and 0.02 in data set [4]. Moreover, the results for the IC50 in data set [2] and in data set [3] were 5.89 µM and 59.4 µM, respectively. Further, in data set [5], the selectivity ratio was determined as 10.
Take `CCCCCCOc1ccc(C2=C(c3ccc(O)cc3)[C@H]3C[C@H](S(=O)(=O)N(CC(F)(F)F)c4ccc(Cl)cc4)[C@@H]2O3)cc1` (relative stereo): the figures for the relative binding affinity (RBA) in data set [1] and in data set [4] were 4.14 and 0.04, respectively. The IC50 in data set [2] amounted to 2.89 µM; in data set [3], 57.5 µM. Besides, the selectivity ratio in data set [5] turned out to be 19.8.
On to `CCCCCCOc1ccc(C2=C(c3ccc(O)cc3)[C@H]3O[C@@H]2C[C@@H]3S(=O)(=O)N(CC(F)(F)F)c2ccc(Cl)cc2)cc1` (relative stereo), for which the relative binding affinity (RBA) was 3.49 in data set [1] and 0.02 in data set [4]. Moreover, the concentration for half-maximal inhibition (IC50) worked out at 1.38 µM in data set [2] and 39.7 µM in data set [3]. In data set [5], the selectivity ratio worked out at 28.7.
As for `CCCCCCOc1ccc(C2=C(c3ccc(O)cc3)[C@H]3C[C@H](S(=O)(=O)N(CC)c4ccccc4)[C@@H]2O3)cc1` (relative stereo), the relative binding affinity (RBA) came to 2.99 in data set [1] and 0.35 in data set [4]. In addition, the concentration for half-maximal inhibition (IC50) in data set [2] was 3.45 µM; in data set [3], above 100 µM. Besides, the selectivity ratio in data set [5] is above 28.9.
For `CCCCOc1ccc(C2=C(c3ccc(O)cc3)[C@H]3O[C@@H]2C[C@@H]3S(=O)(=O)N(CC(F)(F)F)c2ccc(Cl)cc2)cc1` (relative stereo), the relative binding affinity (RBA) is 1.13 in data set [1] and 0.16 in data set [4]. For the same compound, the half-maximal inhibitory concentration (IC50) is 3.22 µM in data set [2] and 47.4 µM in data set [3]. Also, the selectivity ratio in data set [5] was 14.7.
With `CCCCCCCCCCOc1ccc(C2=C(c3ccc(O)cc3)[C@H]3O[C@@H]2C[C@@H]3S(=O)(=O)N(CC(F)(F)F)c2ccc(OC)cc2)cc1` (relative stereo), the results for the relative binding affinity (RBA) in data set [1] and in data set [4] were 1.35 and 0.02, respectively. Moreover, the results for the IC50 in data set [2] and in data set [3] were 25.3 µM and above 100 µM, respectively. In data set [5], the selectivity ratio is above 3.9.
In the case of `CCCCCCCCCCOc1ccc(C2=C(c3ccc(O)cc3)[C@H]3C[C@H](S(=O)(=O)N(CC(F)(F)F)c4ccc(OC)cc4)[C@@H]2O3)cc1` (relative stereo), the values for the relative binding affinity (RBA) in data set [1] and in data set [4] were 0.85 and 0.6, respectively. Moreover, the results for the half-inhibitory concentration (IC50) in data set [2] and in data set [3] were 31.8 µM and above 100 µM, respectively. The selectivity ratio in data set [5] is above 3.1.
For `CCCCCCCCOc1ccc(C2=C(c3ccc(O)cc3)[C@H]3C[C@H](S(=O)(=O)N(CC(F)(F)F)c4ccc(Cl)cc4)[C@@H]2O3)cc1` (relative stereo), the results for the relative binding affinity (RBA) in data set [1] and in data set [4] were 2.36 and 0.04, respectively. Also, the half-inhibitory concentration (IC50) in data set [2] is 5.22 µM; in data set [3], above 100 µM. Besides, the selectivity ratio in data set [5] is above 19.1.
Consider `CCCCCCCCCCOc1ccc(C2=C(c3ccc(O)cc3)[C@H]3C[C@H](S(=O)(=O)N(CC(F)(F)F)c4ccc(Cl)cc4)[C@@H]2O3)cc1` (relative stereo), for which the relative binding affinity (RBA) in data set [1] was 0.25; in data set [4], 0.11. In addition, the IC50 is 51.2 µM in data set [2] and above 100 µM in data set [3]. The selectivity ratio in data set [5] was above 1.9.
Turning to `CCCCCCCCOc1ccc(C2=C(c3ccc(O)cc3)[C@H]3O[C@@H]2C[C@@H]3S(=O)(=O)N(CC(F)(F)F)c2ccc(OC)cc2)cc1` (relative stereo), the values for the relative binding affinity (RBA) in data set [1] and in data set [4] were 1.59 and 0.15, respectively. Moreover, the concentration for half-maximal inhibition (IC50) in data set [2] is 2.39 µM; in data set [3], 42.8 µM. Also, the selectivity ratio in data set [5] amounted to 17.9.
Take `CCCCCCCCOc1ccc(C2=C(c3ccc(O)cc3)[C@H]3C[C@H](S(=O)(=O)N(CC(F)(F)F)c4ccc(OC)cc4)[C@@H]2O3)cc1` (relative stereo): the relative binding affinity (RBA) in data set [1] was determined as 1.08; in data set [4], 0.32. Also, the concentration for half-maximal inhibition (IC50) in data set [2] was 2.21 µM; in data set [3], above 100 µM. Also, the selectivity ratio in data set [5] is above 45.2.
For the compound `CCCCOc1ccc(C2=C(c3ccc(O)cc3)[C@H]3C[C@H](S(=O)(=O)N(CC(F)(F)F)c4ccc(Cl)cc4)[C@@H]2O3)cc1` (relative stereo), the relative binding affinity (RBA) in data set [1] is 4.25; in data set [4] it was 0.05. The figures for the IC50 in data set [2] and in data set [3] were 2.95 µM and 45.8 µM, respectively. Also, the selectivity ratio in data set [5] is 15.5.

For the origin of these results see ChEMBL document CHEMBL4359894, “Novel class of 7-Oxabicyclo[2.2.1]heptene sulfonamides with long alkyl chains displaying improved estrogen receptor α degradation activity” (Eur J Med Chem, 2019).
